Measured values reported in patent US12152030B2 (NOVOSTAR PHARMACEUTICALS, LTD., priority 2019, dated 2024).
Where a name gives a salt, the structure may show the parent alone.

Legend:
[1] = molecular target: T1, STK17A/DRAK1 (Homo sapiens, UniProt Q9UEE5); experiment: KinomeScan, DRAK1; type: binding
T1 sequence (Q9UEE5 1-414): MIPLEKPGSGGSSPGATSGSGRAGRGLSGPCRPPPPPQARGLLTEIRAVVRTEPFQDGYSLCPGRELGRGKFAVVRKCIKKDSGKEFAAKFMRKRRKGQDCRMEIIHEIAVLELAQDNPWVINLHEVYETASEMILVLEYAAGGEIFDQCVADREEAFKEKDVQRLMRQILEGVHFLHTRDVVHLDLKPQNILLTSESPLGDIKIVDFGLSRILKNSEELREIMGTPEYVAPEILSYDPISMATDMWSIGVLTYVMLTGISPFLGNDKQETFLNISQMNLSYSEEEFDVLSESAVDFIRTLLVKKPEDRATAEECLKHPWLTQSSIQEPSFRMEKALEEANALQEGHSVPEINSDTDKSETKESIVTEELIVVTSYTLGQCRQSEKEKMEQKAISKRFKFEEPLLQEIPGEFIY
From the text: (§1) KinomeScan was used to determine the kinase selectivity of compound 2.

[2] = molecular target: T2, GAK (Homo sapiens, UniProt O14976); experiment: KinomeScan, GAK; type: binding
T2 sequence (O14976 1-1311): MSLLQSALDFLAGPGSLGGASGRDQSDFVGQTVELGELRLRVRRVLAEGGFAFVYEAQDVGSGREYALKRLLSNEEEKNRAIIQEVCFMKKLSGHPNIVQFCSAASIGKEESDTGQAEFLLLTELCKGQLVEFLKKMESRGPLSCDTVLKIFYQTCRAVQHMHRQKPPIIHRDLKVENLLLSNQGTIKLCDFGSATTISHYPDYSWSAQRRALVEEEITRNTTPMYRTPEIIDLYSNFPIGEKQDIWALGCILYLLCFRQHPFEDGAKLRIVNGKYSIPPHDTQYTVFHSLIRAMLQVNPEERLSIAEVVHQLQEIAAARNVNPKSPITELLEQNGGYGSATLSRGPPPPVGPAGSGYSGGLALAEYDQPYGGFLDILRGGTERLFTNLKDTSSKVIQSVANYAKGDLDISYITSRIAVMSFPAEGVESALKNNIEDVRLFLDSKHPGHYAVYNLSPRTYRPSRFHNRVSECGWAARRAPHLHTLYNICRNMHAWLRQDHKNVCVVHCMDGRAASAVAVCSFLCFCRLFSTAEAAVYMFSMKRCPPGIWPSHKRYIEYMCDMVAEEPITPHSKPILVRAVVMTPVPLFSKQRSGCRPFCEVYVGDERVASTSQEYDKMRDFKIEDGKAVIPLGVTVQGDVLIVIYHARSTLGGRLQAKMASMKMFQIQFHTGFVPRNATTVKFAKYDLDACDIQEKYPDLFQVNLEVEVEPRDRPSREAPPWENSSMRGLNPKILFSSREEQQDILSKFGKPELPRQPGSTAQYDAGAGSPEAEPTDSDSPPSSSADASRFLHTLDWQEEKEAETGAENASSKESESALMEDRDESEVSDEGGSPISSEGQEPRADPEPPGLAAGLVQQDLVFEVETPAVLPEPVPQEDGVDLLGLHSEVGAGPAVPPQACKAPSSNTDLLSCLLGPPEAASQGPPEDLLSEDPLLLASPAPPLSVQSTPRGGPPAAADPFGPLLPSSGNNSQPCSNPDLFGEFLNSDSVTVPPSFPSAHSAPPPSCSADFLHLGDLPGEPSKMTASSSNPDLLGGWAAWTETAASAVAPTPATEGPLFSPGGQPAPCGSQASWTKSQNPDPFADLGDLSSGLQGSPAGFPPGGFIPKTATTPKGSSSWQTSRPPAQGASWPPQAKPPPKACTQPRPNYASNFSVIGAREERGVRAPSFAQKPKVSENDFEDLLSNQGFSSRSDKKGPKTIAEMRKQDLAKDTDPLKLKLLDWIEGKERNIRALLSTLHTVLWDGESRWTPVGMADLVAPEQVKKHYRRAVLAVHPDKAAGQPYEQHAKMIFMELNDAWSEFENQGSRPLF
From the text: as §1

[3] = molecular target: MNK2 (Homo sapiens, UniProt Q9HBH9); experiment: KinomeScan, MNK2; type: binding
From the text: as §1

[4] = system: Phosphorylated eIF4E; experiment: Intracellular peIF4E signaling assay; type: cell-based; conditions: 2 h; two hours incubation at 37° C.; read-out: peIF4E signaling cell assay IC50
Procedure: Phosphorylated eIF4E was determined using CisBio peIF4E assay kit (CisBio, catalog number 64EF4PEG). The cells were plated in a 96-well cell culture plate in a volume of 90 μL, and the number of cells per well was 5*10^4. The compounds (10×) were subjected to 3-fold serial dilution, added to the cell plate in a volume of 10 μL with the final DMSO concentration being 1%, and incubated at 37° C. for two hours. The cell plate was centrifuged at 300 g for 5 minutes, and the cell supernatant was carefully removed. The cell plate was immediately added with 50 μL of cell lysis buffer […] and incubated at 25° C. with shaking for at least 30 minutes. After homogenization by pipetting, 16 μL of cell lysate was transferred from the 96-well cell culture plate to a 384-well small-volume microwell plate. According to the kit instruction, an antibody mixture solution was prepared with a detection buffer, and was added in a volume of 4 μL to the 384-well small-volume microwell plate containing the cell lysate. The plate was covered with a plate sealer, incubated overnight at 25° C., and was read for fluorescence emission at two different wavelengths (665 nm and 615 nm) on the EnVision microplate reader counter. The emission ratio was imported into a GraphPadPrism software to fit the compound concentration (IC50) required for 50% inhibition of enzyme activity.
In this respect, IC50 values which are less than 0.05 μM were marked as “+++”, which are from 0.05 to 1.0 μM were marked as “++”, and which are greater than 1.0 and up to 100 μM were marked as “+”, and NA meant “not detected”.

MNK2, sequence (Q9HBH9 whole entry): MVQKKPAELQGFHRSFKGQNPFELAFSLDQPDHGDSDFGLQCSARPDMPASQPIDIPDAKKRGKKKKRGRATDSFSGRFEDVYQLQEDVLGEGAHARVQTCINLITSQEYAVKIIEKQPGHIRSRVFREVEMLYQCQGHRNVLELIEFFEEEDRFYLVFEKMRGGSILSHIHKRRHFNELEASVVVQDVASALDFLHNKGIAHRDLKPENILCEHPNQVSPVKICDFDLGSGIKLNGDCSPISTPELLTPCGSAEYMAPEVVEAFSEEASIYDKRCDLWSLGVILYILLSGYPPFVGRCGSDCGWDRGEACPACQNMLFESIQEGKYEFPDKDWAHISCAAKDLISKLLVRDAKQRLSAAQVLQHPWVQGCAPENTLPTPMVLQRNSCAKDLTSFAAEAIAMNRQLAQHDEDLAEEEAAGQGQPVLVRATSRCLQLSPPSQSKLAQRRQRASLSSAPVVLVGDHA

inhibition at 1 µM [1]: 62%
Kd ([1]; dose response analysis, read-out: Kd of interaction with DRAK1): 0.37 µM
inhibition at 1 µM [2]: 97.8%
Kd ([2]; dose response analysis, read-out: Kd of interaction with GAK): 0.05 µM
inhibition at 1 µM [3]: 99.5%
IC50 [4]: < 0.05 µM
SMILES: Cc1c2c(c(=O)n3c1C(=O)NC31CCCCC1)Nc1cc(N)ncc1C2 [Compound 2, 8′-amino-12′-methyl-6′,11′-dihydro-2′H-spiro[cyclohexane-1,3′-imidazole[1′,5′:1,6]pyrido[3,4-B][1,6]naphthyridine]-1′,5′-dione hydrochloride]
